In US20120122727A1, “IN VITRO METHOD FOR PREDICTING WHETHER A COMPOUND IS GENOTOXIC IN VIVO” (priority 2009, published 2012):

Key:
[1] = test system: primary mouse hepatocytes
[2] = test system: primary mouse hepatocytes; assay: Gene expression (Affymetrix Mouse Genome 430 2.0) in primary mouse hepatocytes, true vs false GTX, 24 h and 48 h
[3] = in vivo; cited from earlier work

Cl.ClCc1ccccn1 [2-CP, 2-(Chloromethyl)pyridine.HCl]
Gene expression data AF204959 (Cyp3a25 /// LOC622249) [1]: −0.5019 | Gene expression AA561726 average [2]: −0.4297 | Gene expression AF000969 average [2]: 0.2944 | Gene expression AF022072 average [2]: 0.04067 | Gene expression AF033112 average [2]: −0.6651 | Gene expression AF055573 average [2]: 0.3686 | Gene expression AF069954 average [2]: 0.199 | Gene expression AF297615 average [2]: −0.5906 | Gene expression AF335325 average [2]: −0.05667 | Gene expression AI594683 average [2]: −0.2197 | Gene expression AI747296 average [2]: −0.2637 | Gene expression AK005731 average [2]: −0.6019 | Gene expression AK007854 average [2]: 0.5513 | Gene expression AK010447 average [2]: −0.05023 | Gene expression AK010738 average [2]: 0.0059 | Gene expression AK014608 average [2]: −0.01263 | Gene expression AK017734 average [2]: 0.1489 | Gene expression AK018383 average [2]: −0.2158 | Gene expression AK019979 average [2]: −0.4249 | Gene expression AV095209 average [2]: −0.03467 | Gene expression AV141095 average [2]: −0.4102 | Gene expression AV173869 average [2]: 0.3109 | Gene expression AV216768 average [2]: −0.4179 | Gene expression AV219418 average [2]: 0.8281 | Gene expression AV221299 average [2]: 0.4545 | Gene expression AV246296 average [2]: −0.3558 | Gene expression AV251625 average [2]: 0.06723 | Gene expression AV254764 average [2]: 0.396 | Gene expression AV327248 average [2]: −0.2215 | Gene expression BB009155 average [2]: −0.348 | Gene expression BB027848 average [2]: 0.2054 | Gene expression BB043558 average [2]: −0.2293 | Gene expression BB046347 average [2]: 0.187 | Gene expression BB140436 average [2]: 0.2823 | Gene expression BB204486 average [2]: −0.3875 | Gene expression BB223872 average [2]: 0.1743 | Gene expression BB246912 average [2]: 0.5739 | Gene expression BB275142 average [2]: 0.091 | Gene expression BB458460 average [2]: −0.1792 | Gene expression BB463610 average [2]: 0.0113 | Gene expression BB730977 average [2]: −0.7313 | Gene expression BB743970 average [2]: −0.1686 | Gene expression BB770528 average [2]: −0.4836 | Gene expression BB781615 average [2]: 0.007033 | Gene expression BC003284 average [2]: −0.2395 | Gene expression BC004827 average [2]: −0.2477 | Gene expression BC005552 average [2]: 0.1255 | Gene expression BC006713 average [2]: 0.2405 | Gene expression BC010318 average [2]: 0.1986 | Gene expression BC012247 average [2]: 0.5221 | Gene expression BC012955 average [2]: 0.2863 | Gene expression BC013893 average [2]: 0.4871 | Gene expression BC017615 average [2]: −0.3193 | Gene expression BC019379 average [2]: −0.1926 | Gene expression BC019882 average [2]: 0.8148 | Gene expression BC021352 average [2]: −0.7192 | Gene expression BC022148 average [2]: 0.1919 | Gene expression BC025169 average [2]: 0.9283 | Gene expression BC026131 average [2]: 0.4079 | Gene expression BC027026 average [2]: −0.2177 | Gene expression BC027121 average [2]: −0.6553 | Gene expression BC027185 average [2]: 0.06273 | Gene expression BE956581 average [2]: 0.0444 | Gene expression BF719766 average [2]: −0.1259 | Gene expression BG065754 average [2]: −0.2817 | Gene expression BG066491 average [2]: −0.3489 | Gene expression BG076151 average [2]: −0.0769 | Gene expression BG076333 average [2]: 0.4759 | Gene expression BG797099 average [2]: 0.004233 | Gene expression BG967046 average [2]: −0.1557 | Gene expression BI651416 average [2]: −0.08753 | Gene expression BI966443 average [2]: −0.01713 | Gene expression BM198879 average [2]: −0.1026 | Gene expression BM200015 average [2]: −0.3607 | Gene expression BM230508 average [2]: −0.2554 | Gene expression BM936480 average [2]: −0.07417 | Gene expression BQ174991 average [2]: 0.1864 | Gene expression L21027 average [2]: −0.5404 | Gene expression NM_007556 average [2]: 0.1685 | Gene expression NM_007980 average [2]: −0.2848 | Gene expression NM_007987 average [2]: −0.3447 | Gene expression NM_008522 average [2]: 0.0213 | Gene expression NM_008935 average [2]: −0.2124 | Gene expression NM_009897 average [2]: −0.06103 | Gene expression NM_011075 average [2]: −0.5782 | Gene expression NM_011176 average [2]: −0.0046 | Gene expression NM_011316 average [2]: 0.5829 | Gene expression NM_012006 average [2]: −0.1277 | Gene expression NM_013642 average [2]: 0.3967 | Gene expression NM_013738 average [2]: −0.373 | Gene expression NM_013929 average [2]: −0.5291 | Gene expression NM_018881 average [2]: −0.0599 | Gene expression NM_019738 average [2]: −0.5143 | Gene expression NM_030697 average [2]: −0.0882 | Gene expression NM_053122 average [2]: 0.1396 | Gene expression NM_134147 average [2]: 0.6449 | Gene expression NM_134188 average [2]: −0.1373 | Gene expression X62701 average [2]: −0.146 | Gene expression data AF000969 (Cadps2) [2]: −0.1003 | Gene expression data AF022072 (Grb10) [2]: 0.621 | Gene expression data AF065917 (Lif) [2]: 0.01213 | Gene expression data AF297615 (Ggta1) [2]: 0.06963 | Gene expression data AI594683 (Dmn) [2]: −0.3157 | Gene expression data AI596632 (Ptprg /// LOC632664) [2]: 0.2251 | Gene expression data AI987929 (Ndrg1) [2]: −0.1004 | Gene expression data AK004419 (Fbxl17) [2]: −0.1203 | Gene expression data AK005731 (1700007K13Rik) [2]: 0.1965 | Gene expression data AK007766 (1810044A24Rik) [2]: −0.1235 | Gene expression data AK007854 (1810053B23Rik) [2]: −0.4492 | Gene expression data AK009736 (Gpr137b /// LOC664862 /// LOC673335) [2]: 0.9644 | Gene expression data AK010447 (Smyd3) [2]: 0.06097 | Gene expression data AK014608 (4632434l11Rik) [2]: 0.5726 | Gene expression data AK019979 (2610528E23Rik) [2]: 0.3731 | Gene expression data AV095209 (Mthfd1l) [2]: 0.5754 | Gene expression data AV141095 (1110033M05Rik) [2]: 0.1817 | Gene expression data AV173571 (1700106N22Rik) [2]: −0.01367 | Gene expression data AV219418 (Ldhb) [2]: −0.7968 | Gene expression data AV223474 (Zdhhc14) [2]: −0.4094 | Gene expression data AV298304 (Homez) [2]: 0.1881 | Gene expression data AV327248 (Zfp365 /// LOC674611) [2]: 0.1477 | Gene expression data AV377066 (9130221J18Rik) [2]: −0.6354 | Gene expression data AW240761 (Tbc1d5) [2]: 0.02803 | Gene expression data AW543460 (Pard3) [2]: 0.2263 | Gene expression data AW543723 [2]: 0.1487 | Gene expression data AW986246 (Maoa) [2]: 1.21 | Gene expression data BB027848 (4732466D17Rik) [2]: −0.5716 | Gene expression data BB043558 (9230114K14Rik) [2]: 0.4946 | Gene expression data BB275142 (AW456874) [2]: −0.1954 | Gene expression data BB308836 (Ppm1l) [2]: −0.3692 | Gene expression data BB318221 (Zdhhc14) [2]: −0.2464 | Gene expression data BB463610 (4632434l11Rik) [2]: 0.3848 | Gene expression data BB526605 (Mipol1) [2]: −0.2134 | Gene expression data BB770528 (Rai2) [2]: −0.3271 | Gene expression data BB821363 (Scfd2) [2]: −0.1883 | Gene expression data BC004827 (Psat1) [2]: 0.3654 | Gene expression data BC008626 (Icam1) [2]: −0.242 | Gene expression data BC010462 (BC010462) [2]: −0.5895 | Gene expression data BC012247 (Dcxr) [2]: −0.3261 | Gene expression data BC012260 (Psmf1) [2]: −0.824 | Gene expression data BC015270 (Hist2h3c2) [2]: −0.231 | Gene expression data BC016073 (Cdkal1) [2]: 0.03017 | Gene expression data BC016265 (Ube2e2) [2]: 0.0177 | Gene expression data BC019882 (Acaa1b) [2]: −0.0399 | Gene expression data BC025501 (Aaas) [2]: 0.0663 | Gene expression data BC025837 (Sbk1) [2]: −0.5042 | Gene expression data BC025915 (Cova1) [2]: 0.05827 | Gene expression data BC026422 (Tgm1) [2]: −0.3825 | Gene expression data BF719766 (Thyn1) [2]: 0.0395 | Gene expression data BG065754 (Ccng1) [2]: 0.3287 | Gene expression data BG066903 (Kif16b) [2]: 0.3368 | Gene expression data BG069873 (Gnb1l) [2]: −0.1027 | Gene expression data BG070887 (Gtdc1) [2]: −0.06773 | Gene expression data BG076151 (Ppm1d) [2]: 0.1213 | Gene expression data BG261907 (Large) [2]: −0.1177 | Gene expression data BI651416 (Cdc42bpg) [2]: 0.05237 | Gene expression data BI660702 (Ell3) [2]: 0.08167 | Gene expression data BM198879 (Ercc5) [2]: 0.2935 | Gene expression data BM230508 (A030007D23Rik) [2]: 0.3615 | Gene expression data NM_007987 (Fas) [2]: 0.2313 | Gene expression data NM_008522 (Ltf) [2]: −0.3581 | Gene expression data NM_008576 (Abcc1) [2]: 1.199 | Gene expression data NM_011176 (St14) [2]: −0.05393 | Gene expression data NM_011316 (Saa4) [2]: −0.04463 | Gene expression data NM_012006 (Acot1) [2]: 0.6012 | Gene expression data NM_013866 (Zfp385) [2]: −0.1346 | Gene expression data NM_018770 (Igsf4a) [2]: 0.14 | Gene expression data NM_021451 (Pmaip1) [2]: 0.02357 | Gene expression data NM_025770 (Atg10) [2]: 0.3445 | Gene expression data NM_028803 (Gbe1) [2]: 0.5242 | Gene expression data NM_030697 (Ankrd47) [2]: −0.5785 | Gene expression data NM_053168 (Trim11) [2]: −0.06783 | Gene expression data NM_134188 (Acot2) [2]: 0.501 | Gene expression data Y15910 (Diap2) [2]: 0.06693 | GTX in vivo [3]: −
